From patent US20170349540A1, “HISTONE DEACETYLASE INHIBITORS” (The General Hospital Corporation, priority 2014, published 2017)

Key:
rats [1] = assay: Open field activity test; type: in vivo, rat; settings: 20-fold higher doses relative to the FST tests (0.5 and 2.0 mg/kg i.p.), relative to vehicle-treated controls
Procedure: Behavioral testing was applied to a cohort of 12 rats. Following 7 days of daily i.p. treatment with i) vehicle (10% DMSO, 10% Tween 80, 80% saline; 2 mL/kg); or solubilized ii) the compound of Example 2 (0.025 mg/kg) or iii) the compound of Example 2 (0.1 mg/kg), rats were exposed to the modified forced swim test (FST). Briefly, FST exposure (15 min exposure, 25° C. tap water, 30 cm water depth) was performed 18-24 h after the previous i.p. treatment, after which rats were returned to their home cages to dry for approximately 2-3 h, then given daily i.p. treatment as before. FST testing was performed one day later (5 min test, 25° C. tap water, 30 cm water depth) with behaviors digitally recorded for subsequent analysis of immobility by a trained reviewer, blinded to treatment groups. Rats were returned to home cages and monitored without treatment for 72 h. Rats were then treated for 7 additional days with i) vehicle, ii) the compound of Example 2 (0.5 mg/kg) or iii) the compound of Example 2 (2.0 mg/kg) via daily i.p. injection; treatment assignments for each rat remained the same with a 20× increase in dose of the compound of Example 2. Animals were then evaluated for locomotor activity in an open field (60 cm square) using automated tracking software (MedAssociates). […]

[2] = Intravenous pharmacokinetics and brain distribution assay; type: in vivo, male Sprague Dawley rats; settings: single i.v. dose 1 mg/kg
Procedure: Healthy male Sprague Dawley rats (8-12 weeks old) weighing between 200 to 250 g were procured from In vivo Bioscience, Bengluru, India. Three rats were housed in each cage. Temperature and humidity were maintained at 22±3° C. and 40-70%, respectively and illumination was controlled to give a sequence of 12 h light and 12 h dark cycle. Temperature and humidity were recorded by auto-controlled data logger system. All the animals were provided laboratory rodent diet (Vetcare India Pvt. Ltd, Bengaluru) ad libitum. Reverse osmosis water treated with ultraviolet light was provided ad libitum.
Sprague Dawley rats were intravenously administered a solution formulation of the compound of Example 2 prepared in 10% DMSO, 10% Tween 80, 80% normal saline. The blood samples were collected from a set of three rats at each time point in labeled micro centrifuge tube containing K2EDTA solution as anticoagulant. Plasma samples were separated by centrifugation of whole blood and stored at below −70° C. until bioanalysis. After collection of blood samples at each time point animals were humanely euthanized by CO2 and the brain was collected. Brain samples were homogenized using ice-cold phosphate buffer saline (pH=7.4) and homogenates were stored at below −70° C. until analysis. Total homogenate volume was three times the brain weight. All samples were processed for analysis by protein precipitation using acetonitrile and analyzed with fit-for-purpose LC-MS/MS method (LLOQ=1.01 ng/mL in plasma and brain). Pharmacokinetic parameters were calculated using the non-compartmental analysis tool of Phoenix WinNonlin® (Version 6.3).
The compound of Example 2 (5.89 mg) was added in a labeled bottle, followed by DMSO (2.945 mL), Tween 80 (2.945 mL), and normal saline (23.50 mL), and the resulting mixture was mixed by vortexing after each addition. The solution formulation was sonicated for 2 minutes to obtain a clear solution. After preparation of formulation, 200 μL samples were aliquoted for analysis. […] All formulations were freshly prepared prior to dosing. […]
Concentrations of the compound of Example 2 in rat plasma and brain samples were analyzed with fit-for-purpose by LC-MS/MS method. […] Following centrifugation, 100 µL of clear supernatant was transferred to a 96-well plate and analyzed using LC-MS/MS.
Non-Compartmental-Analysis module in Phoenix WinNonlin® (Version 6.3) was used to assess the pharmacokinetic parameters. […] The areas under the concentration time curve (AUClast and AUCinf) were calculated by linear trapezoidal rule. The terminal elimination rate constant, ke, was determined by regression analysis of the linear terminal portion of the log plasma concentration-time curve. […]

rats [3] = assay: Forced swim test; type: in vivo, rat; settings: 0.1 mg/kg i.p., against vehicle-treated controls, 5-min FST session
Procedure: (§1) Behavioral testing was applied to a cohort of 12 rats. Following 7 days of daily i.p. treatment with i) vehicle (10% DMSO, 10% Tween 80, 80% saline; 2 mL/kg); or solubilized ii) the compound of Example 2 (0.025 mg/kg) or iii) the compound of Example 2 (0.1 mg/kg), rats were exposed to the modified forced swim test (FST). Briefly, FST exposure (15 min exposure, 25° C. tap water, 30 cm water depth) was performed 18-24 h after the previous i.p. treatment, after which rats were returned to their home cages to dry for approximately 2-3 h, then given daily i.p. treatment as before. FST testing was performed one day later (5 min test, 25° C. tap water, 30 cm water depth) with behaviors digitally recorded for subsequent analysis of immobility by a trained reviewer, blinded to treatment groups. Rats were returned to home cages and monitored without treatment for 72 h. […] Animals were then evaluated for locomotor activity in an open field (60 cm square) using automated tracking software (MedAssociates).
(§2) Rats were exposed to a 15 min session of forced swimming in 25° C. water (20 cm diameter cylinder, 30 cm water depth). […] After 1 day, rats were tested for immobility time during 5-min FST sessions which were videotaped and scored by a trained observer blinded to treatment groups.

[4] = Weight gain of rats during treatment; type: in vivo, rat; settings: daily i.p. treatment
Procedure: as §1, §2

## CN(Cc1ccc(/C=C/C(=O)Nc2ccccc2N)cc1)CC12CC3CC(CC(C3)C1)C2 [Example 2, (E)-3-(4-((((3r,5r,7r)-adamantan-1-ylmethyl)(methyl)amino)methyl)phenyl)-N-(2-aminophenyl)acrylamide]
Rats [1]
  effect in locomotor activity (open field): no confounding effect in locomotor activity
[2]; male, Sprague Dawley, rat, brain/plasma, iv, read-out: brain-to-plasma exposure ratio
  Kp: 8.35
[2]; male, Sprague Dawley, rat, plasma, iv
  clearance: 79 mL/min/kg
[2]; male, Sprague Dawley, rat, plasma, iv, read-out: elimination half-life (converted)
  half-life: 54.6 min
[2]
  Vss relative to the normal volume of total body water (0.7 L/kg): 6 fold
Rats [3]
  decrease in FST immobility scores: 17%
[4]
  average weight gain of tested rats: not impacted
